Experimental data: patent publication US10017514B2, “6,7-dihydropyrazolo[1,5-α]pyrazin-4(5H)-one compounds and their use as negative allosteric modulators of mGluR2 receptors” (Janssen Pharmaceutica NV, priority 2014, dated 2018)

Tests used:
human mGlu2 receptor = molecular target: T1, human mGlu2 receptor (Homo sapiens, UniProt Q14416); experiment: [35S]GTPγS binding assay, mGluR2 negative allosteric modulation; type: biochemical; conditions: for Emax: maximal % inhibition relative to the control glutamate response (EC80 glutamate), read-out: GTPγS-hmGluR2 anGT Emax; for IC50: membranes from CHO cells transfected with human mGlu2 receptor, glutamate ~EC80 (60 μM), read-out: GTPγS-hmGluR2 anGT pIC50 (converted)
T1 construct: expressed in transfected cells; host or cells: CHO cells (membrane preparation)
T1 sequence (Q14416 19-872): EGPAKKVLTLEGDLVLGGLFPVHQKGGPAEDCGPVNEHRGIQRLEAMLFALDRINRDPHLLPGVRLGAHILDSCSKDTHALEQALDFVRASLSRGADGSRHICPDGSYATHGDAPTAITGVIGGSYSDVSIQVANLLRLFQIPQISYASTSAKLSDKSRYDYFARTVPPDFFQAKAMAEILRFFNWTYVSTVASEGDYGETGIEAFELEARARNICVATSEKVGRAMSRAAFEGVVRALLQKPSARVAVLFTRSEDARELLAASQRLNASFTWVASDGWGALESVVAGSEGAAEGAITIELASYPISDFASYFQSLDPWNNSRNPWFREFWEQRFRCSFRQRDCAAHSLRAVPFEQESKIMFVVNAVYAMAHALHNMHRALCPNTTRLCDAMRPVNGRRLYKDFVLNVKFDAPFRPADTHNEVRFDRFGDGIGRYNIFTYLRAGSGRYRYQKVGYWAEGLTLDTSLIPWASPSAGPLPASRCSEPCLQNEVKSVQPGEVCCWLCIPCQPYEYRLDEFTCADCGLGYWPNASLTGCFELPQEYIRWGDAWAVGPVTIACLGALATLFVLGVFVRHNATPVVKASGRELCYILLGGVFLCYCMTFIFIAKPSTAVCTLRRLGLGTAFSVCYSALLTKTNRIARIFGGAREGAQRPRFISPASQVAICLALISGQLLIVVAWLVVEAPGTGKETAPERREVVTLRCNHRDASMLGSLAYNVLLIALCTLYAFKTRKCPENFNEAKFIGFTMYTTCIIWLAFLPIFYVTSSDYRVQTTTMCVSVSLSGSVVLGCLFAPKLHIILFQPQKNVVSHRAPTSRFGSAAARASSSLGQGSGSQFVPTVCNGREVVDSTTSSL
Method: Total reaction volume was 200 μl. […] Membrane-bound radioactivity was counted in a Topcount.

rats = experiment: Reversal of the effect of the mGluR2 PAM JNJ-42153605-induced inhibition of scopolamine-induced hyperlocomotion; type: in vivo, rat; conditions: for ED50: Rattus norvegicus, rats, PO, 60 min pretreatment, JNJ-42153605 20 mg/kg i.v. + scopolamine 0.16 mg/kg i.v., criterion total distance >1500 cm in 30 min, read-out: SCOP JNJ-42153605 ED50
Method: Motor activity was measured in microprocessor-based motor activity arenas (closed gray PVC cylinders with a height of 39 cm and a diameter of 31 cm). Each arena was placed on an infrared LED (8×8 LEDs) lit box (white PVC squared box; 40×40 cm^2; height 12.5 cm. An infrared-sensitive tube camera and a white light source were mounted to the ceiling above the observation chamber to track the animal. […] Noldus, Wageningen, The Netherlands). The intensity of the light within the activity cages (measured in the centre at the level of the floor) ranged between 4 and 8 LUX. The rats were pretreated with test compound or vehicle at 60 min before the start of the activity recordings and placed into individual cages. […] WO2010/130424; Cid et al. J. Med.

[1] = historical series of solvent-pretreated control rats, first 30 min

Row | SMILES | melting point | Emax (human mGlu2 receptor) | IC50 (human mGlu2 receptor) | ED50 (rats) | Median total distance travelled (rats; [1]) | rats travelling >1500 cm (rats; [1]) | rats travelling >4400 cm (rats; [1])
1 | Cc1cc(-c2cnn3c2C(=O)N(c2ccc(C(F)(F)F)cc2)C[C@@H]3C)no1 [Co. No. 1, (7S)-7-Methyl-3-(5-methylisoxazol-3-yl)-5-[4-(trifluoromethyl)phenyl]-6,7-dihydropyrazolo[1,5-a]pyrazin-4-one] | 165.04 °C | 103% | 69.2 nM |  |  |  | 
2 | C[C@H]1CN(c2ccc(C(F)(F)F)cc2)C(=O)c2c(-c3cc(-c4ccc(N)nc4)on3)cnn21 [Co. No. 2, (7S)-3-[5-(6-Amino-3-pyridyl)isoxazol-3-yl]-7-methyl-5-[4-(trifluoromethyl)phenyl]-6,7-dihydropyrazolo[1,5-a]pyrazin-4-one] | 233.79 °C | 103% | 2.04 nM | 0.5 mg/kg |  |  | 
3 | C[C@H]1CN(c2ccc(C(F)(F)F)cc2)C(=O)c2c(-c3cc(-c4ccccc4)on3)cnn21 [Co. No. 3, (7S)-7-methyl-3-(5-phenylisoxazol-3-yl)-5-[4-(trifluoromethyl)phenyl]-6,7-dihydropyrazolo[1,5-a]pyrazin-4-one] | 194.25 °C | 103% | 9.12 nM |  |  |  | 
4 | C[C@H]1CN(c2ccc(C(F)(F)F)cc2)C(=O)c2c(-c3cc(-c4ccccn4)on3)cnn21 [Co. No. 4, (7S)-7-methyl-3-[5-(2-pyridyl)isoxazol-3-yl]-5-[4-(trifluoromethyl)phenyl]-6,7-dihydropyrazolo[1,5-a]pyrazin-4-one] | 193.65 °C | 106% | 40.7 nM |  |  |  | 
5 | C[C@H]1CN(c2ccc(C(F)(F)F)cc2)C(=O)c2c(-c3cc(-c4cccnc4)on3)cnn21 [Co. No. 5, (7S)-7-methyl-3-[5-(3-pyridyl)isoxazol-3-yl]-5-[4-(trifluoromethyl)phenyl]-6,7-dihydropyrazolo[1,5-a]pyrazin-4-one] | 215.1 °C | 106% | 11.2 nM | 0.51 mg/kg |  |  | 
6 | Cc1cc(-c2cc(-c3cnn4c3C(=O)N(c3ccc(C(F)(F)F)cc3)C[C@@H]4C)no2)ccn1 [Co. No. 6, (7S)-7-methyl-3-[5-(2-methyl-4-pyridyl)isoxazol-3-yl]-5-[4-(trifluoromethyl)phenyl]-6,7-dihydropyrazolo[1,5-a]pyrazin-4-one] | 118.52 °C | 114% | 40.7 nM |  |  |  | 
7 | C[C@H]1CN(c2ccc(C(F)(F)F)cc2)C(=O)c2c(-c3cc(-c4cccnc4N)on3)cnn21 [Co. No. 24, (7S)-3-[5-(2-amino-3-pyridyl)isoxazol-3-yl]-7-methyl-5-[4-(trifluoromethyl)phenyl]-6,7-dihydropyrazolo[1,5-a]pyrazin-4-one] | 189.85 °C | 106% | 6.03 nM |  |  |  | 
8 | CNc1cc(-c2cc(-c3cnn4c3C(=O)N(c3ccc(C(F)(F)F)cc3)C[C@@H]4C)no2)ccn1 [Co. No. 25, (7S)-7-methyl-3-[5-[2-(methylamino)-4-pyridyl]isoxazol-3-yl]-5-[4-(trifluoromethyl)phenyl]-6,7-dihydropyrazolo[1,5-a]pyrazin-4-one] | 208.39 °C | 110% | 25.1 nM |  |  |  | 
9 | CNc1ccc(-c2cc(-c3cnn4c3C(=O)N(c3ccc(C(F)(F)F)cc3)C[C@@H]4C)no2)cn1 [Co. No. 26, (7S)-7-methyl-3-[5-[6-(methylamino)-3-pyridyl]isoxazol-3-yl]-5-[4-(trifluoromethyl)phenyl]-6,7-dihydropyrazolo[1,5-a]pyrazin-4-one] | 173.7 °C | 112% | 6.17 nM |  |  |  | 
10 | CN1[C@@H]2C[C@@H](OC(=O)[C@H](CO)c3ccccc3)C[C@H]1[C@@H]1O[C@@H]12 [Scopolamine, scopolamine, reference compound] |  |  |  |  | 7246 cm | 100% | 95.8%

More lines, main results first:

Row | melting point | Emax (human mGlu2 receptor) | IC50 (human mGlu2 receptor) | SMILES | ED50 (rats) | Median total distance travelled (rats; [1]) | rats travelling >1500 cm (rats; [1]) | rats travelling >4400 cm (rats; [1])
11 | 208.95 °C | 106% | 27.5 nM | Cc1cncc(-c2cc(-c3cnn4c3C(=O)N(c3ccc(C(F)(F)F)cc3)C[C@@H]4C)no2)c1 [Co. No. 7, (7S)-7-methyl-3-[5-(5-methyl-3-pyridyl)isoxazol-3-yl]-5-[4-(trifluoromethyl)phenyl]-6,7-dihydropyrazolo[1,5-a]pyrazin-4-one] |  |  |  | 
12 |  | 110% | 16.2 nM | Cc1cc(-c2cnn3c2C(=O)N(c2ccc(C(F)(F)F)c(Cl)c2)C[C@@H]3C)no1 [Co. No. 8, (7S)-5-[3-chloro-4-(trifluoromethyl)phenyl]-7-methyl-3-(5-methylisoxazol-3-yl)-6,7-dihydropyrazolo[1,5-a]pyrazin-4-one] |  |  |  | 
13 |  | 113% | 1.15 nM | C[C@H]1CN(c2ccc(C(F)(F)F)c(Cl)c2)C(=O)c2c(-c3cc(-c4ccc(N)nc4)on3)cnn21 [Co. No. 9, (7S)-3-[5-(6-amino-3-pyridyl)isoxazol-3-yl]-5-[3-chloro-4-(trifluoromethyl)phenyl]-7-methyl-6,7-dihydropyrazolo[1,5-a]pyrazin-4-one] |  |  |  | 
14 | 188.25 °C | 106% | 4.79 nM | C[C@H]1CN(c2ccc(C(F)(F)F)c(Cl)c2)C(=O)c2c(-c3cc(-c4ccccn4)on3)cnn21 [Co. No. 10, (7S)-5-[3-chloro-4-(trifluoromethyl)phenyl]-7-methyl-3-[5-(2-pyridyl)isoxazol-3-yl]-6,7-dihydropyrazolo[1,5-a]pyrazin-4-one] | > 0.63 mg/kg |  |  | 
15 | 156.64 °C | 110% | 2.45 nM | C[C@H]1CN(c2ccc(C(F)(F)F)c(Cl)c2)C(=O)c2c(-c3cc(-c4cccnc4)on3)cnn21 [Co. No. 11, (7S)-5-[3-chloro-4-(trifluoromethyl)phenyl]-7-methyl-3-[5-(3-pyridyl)isoxazol-3-yl]-6,7-dihydropyrazolo[1,5-a]pyrazin-4-one] | > 0.63 mg/kg |  |  | 
16 | 168.58 °C | 108% | 6.17 nM | Cc1cncc(-c2cc(-c3cnn4c3C(=O)N(c3ccc(C(F)(F)F)c(Cl)c3)C[C@@H]4C)no2)c1 [Co. No. 12, (7S)-5-[3-chloro-4-(trifluoromethyl)phenyl]-7-methyl-3-[5-(5-methyl-3-pyridyl)isoxazol-3-yl]-6,7-dihydropyrazolo[1,5-a]pyrazin-4-one] | > 0.63 mg/kg |  |  | 
17 | 205.91 °C | 106% | 6.03 nM | C[C@H]1CN(c2ccc(C(F)(F)F)c(Cl)c2)C(=O)c2c(-c3cc(-c4cnccn4)on3)cnn21 [Co. No. 13, (7S)-5-[3-chloro-4-(trifluoromethyl)phenyl]-7-methyl-3-(5-pyrazin-2-ylisoxazol-3-yl)-6,7-dihydropyrazolo[1,5-a]pyrazin-4-one] |  |  |  | 
18 | 155.07 °C | 107% | 14.8 nM | Cc1cc(N2C[C@H](C)n3ncc(-c4cc(-c5ccccn5)on4)c3C2=O)ccc1C(F)(F)F [Co. No. 14, (7S)-7-methyl-5-[3-methyl-4-(trifluoromethyl)phenyl]-3-[5-(2-pyridyl)isoxazol-3-yl]-6,7-dihydropyrazolo[1,5-a]pyrazin-4-one] |  |  |  | 
19 | 120.21 °C | 108% | 5.5 nM | Cc1cc(N2C[C@H](C)n3ncc(-c4cc(-c5cccnc5)on4)c3C2=O)ccc1C(F)(F)F [Co. No. 15, (7S)-7-methyl-5-[3-methyl-4-(trifluoromethyl)phenyl]-3-[5-(3-pyridyl)isoxazol-3-yl]-6,7-dihydropyrazolo[1,5-a]pyrazin-4-one] | > 0.63 mg/kg |  |  | 
20 | 172.9 °C | 110% | 21.4 nM | Cc1cncc(-c2cc(-c3cnn4c3C(=O)N(c3ccc(C(F)(F)F)c(C)c3)C[C@@H]4C)no2)c1 [Co. No. 16, (7S)-7-methyl-3-[5-(5-methyl-3-pyridyl)isoxazol-3-yl]-5-[3-methyl-4-(trifluoromethyl)phenyl]-6,7-dihydropyrazolo[1,5-a]pyrazin-4-one] |  |  |  | 
21 | 181.57 °C | 106% | 17.4 nM | Cc1cc(N2C[C@H](C)n3ncc(-c4cc(-c5cnccn5)on4)c3C2=O)ccc1C(F)(F)F [Co. No. 17, (7S)-7-methyl-5-[3-methyl-4-(trifluoromethyl)phenyl]-3-(5-pyrazin-2-ylisoxazol-3-yl)-6,7-dihydropyrazolo[1,5-a]pyrazin-4-one] |  |  |  | 
22 | 176.27 °C | 101% | 18.6 nM | C[C@H]1CN(c2ccc(C(F)(F)F)cc2)C(=O)c2c(-c3cc(-c4cncc(F)c4)on3)cnn21 [Co. No. 19, (7S)-3-[5-(5-fluoro-3-pyridyl)isoxazol-3-yl]-7-methyl-5-[4-(trifluoromethyl)phenyl]-6,7-dihydropyrazolo[1,5-a]pyrazin-4-one] |  |  |  | 
23 | 168.93 °C | 105% | 20.9 nM | Cc1cc(N2C[C@H](C)n3ncc(-c4cc(-c5cncc(F)c5)on4)c3C2=O)ccc1C(F)(F)F [Co. No. 23, (7S)-3-[5-(5-fluoro-3-pyridyl)isoxazol-3-yl]-7-methyl-5-[3-methyl-4-(trifluoromethyl)phenyl]-6,7-dihydropyrazolo[1,5-a]pyrazin-4-one] |  |  |  | 
